Assay results taken from article PMC5285354, “Cationic Net Charge and Counter Ion Type as Antimicrobial Activity Determinant Factors of Short Lipopeptides” (Frontiers in Microbiology, 2017).
Converted amounts (≈) assume the structure as drawn. Where a SMILES comes first, the peptide text is derived from it. The star is where a group is joined. Palmitoyl = CCCCCCCCCCCCCCCC(=O)*

How the values were obtained:
Format in all cases: cell-based
[1] = test system: human red blood cells; settings: 1 h
In short: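 Washed donor erythrocytes (4% v/v in PBS, EDTA-anticoagulated) incubated with graded lipopeptide concentrations for 1 h at 37 °C; hemoglobin release read at 550 nm in supernatants. Scaled between 0.1% Triton X-100 (100%) and PBS (0%); MHC is the lowest concentration giving 10% hemolysis.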

[2] = test system: Pseudomonas aeruginosa (ATCC 9027); settings: ATCC 9027, 24 h
[3] = test system: Proteus vulgaris (PCM 2668); settings: 24 h
[4] = test system: Candida albicans (ATCC 10231)
[5] = test system: Aspergillus brasiliensis (ATCC 16404); settings: ATCC 16404, 48 h
In short: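 Lowest lipopeptide concentration (μg/mL) with no observable growth gave the MIC, alongside MBC/MFC, by CLSI microbroth dilution. Fungi: Sabouraud dextrose broth, 10^3 cfu/mL start, 25°C for 48 h; bacteria: MH broth, 10^5 cfu/mL, 37°C for 18 h. Run in triplicate, three separate days.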

[6] = test system: Enterococcus faecalis (ATCC 29212); settings: for MBC Enterococcus fecalis, lipopeptides without TFA counter ion / MIC Enterococcus fecalis / MIC Enterococcus fecalis, lipopeptides without TFA counter ion: ATCC 29212, 18 h; for MBC Enterococcus fecalis: ATCC 29212, 24 h
In short: (§1)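 Broth microdilution per CLSI: Mueller-Hinton broth, 10^5 cfu/mL inoculum, 18 h at 37°C for bacteria; Sabouraud dextrose broth, 10^3 cfu/mL, 48 h at 25°C for fungi. MIC (μg/mL) is the lowest lipopeptide concentration inhibiting visible growth; MBC/MFC also determined. Triplicate on three days.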

[7] = test system: Escherichia coli (ATCC 25922); settings: for MBC Escherichia coli, lipopeptides without TFA counter ion / MIC Escherichia coli / MIC Escherichia coli, lipopeptides without TFA counter ion: ATCC 25922, 18 h; for MBC Escherichia coli: ATCC 25922, 24 h
In short: as §1

[8] = test system: Bacillus subtilis (ATCC 6633); settings: for MIC Bacillus subtillis: ATCC 6633, 18 h; for MBC Bacillus subtillis: ATCC 6633, 24 h
In short: as §1

[9] = test system: Proteus vulgaris (PCM 2668); settings: 18 h
In short: as §1

[10] = test system: Candida albicans (ATCC 10231); settings: ATCC 10231, 48 h
In short: as §1

[11] = test system: Candida tropicalis (PCM 2681); settings: PCM 2681, 48 h
In short: as §1

[12] = test system: Staphylococcus epidermidis (PCM 2118); settings: for MIC Staphylococcus epidermidis: PCM 2118, 18 h; for MBC Staphylococcus epidermidis: PCM 2118, 24 h
In short: as §1

[13] = test system: Pseudomonas aeruginosa (ATCC 9027); settings: ATCC 9027, 18 h
In short: as §1

[14] = test system: Klebsiella pneumoniae (ATCC 700603); settings: for MBC Klebsiella pneumoniae, lipopeptides without TFA counter ion / MIC Klebsiella pneumoniae / MIC Klebsiella pneumoniae, lipopeptides without TFA counter ion: ATCC 700603, 18 h; for MBC Klebsiella pneumoniae: ATCC 700603, 24 h
In short: as §1

[15] = test system: Staphylococcus aureus (ATCC 25923); settings: for MBC Staphylococcus aureus, lipopeptides without TFA counter ion / MIC Staphylococcus aureus / MIC Staphylococcus aureus, lipopeptides without TFA counter ion: ATCC 25923, 18 h; for MBC Staphylococcus aureus: ATCC 25923, 24 h
In short: as §1

Row | SMILES | Hemolysis HC10 (MHC), concentration of lipopeptide inducing 10% of hemolysis [1] [µg/mL] | MBC Pseudomonas aeruginosa [2] [µg/mL] | MBC Proteus vulgaris [3] [µg/mL] | MFC Candida albicans, lipopeptides without TFA counter ion [4] [µg/mL] | MFC Aspergillus brasiliensis [5] [µg/mL] | MIC Aspergillus brasiliensis [5] [µg/mL] | MBC Enterococcus fecalis, lipopeptides without TFA counter ion [6] [µg/mL] | MIC Enterococcus fecalis [6] [µg/mL] | MIC Enterococcus fecalis, lipopeptides without TFA counter ion [6] [µg/mL] | MBC Enterococcus fecalis [6] [µg/mL] | MBC Escherichia coli, lipopeptides without TFA counter ion [7] [µg/mL] | MIC Escherichia coli [7] [µg/mL] | MIC Escherichia coli, lipopeptides without TFA counter ion [7] [µg/mL] | MBC Escherichia coli [7] [µg/mL] | MIC Bacillus subtillis [8] [µg/mL] | MBC Bacillus subtillis [8] [µg/mL] | MIC Proteus vulgaris [9] [µg/mL] | MFC Candida albicans [10] [µg/mL] | MIC Candida albicans [10] [µg/mL] | MIC Candida albicans, lipopeptides without TFA counter ion [10] [µg/mL] | further results
1 | CCCCCCCCCCCCCCCC(=O)N[C@@H](CCCCN)C(=O)NCC(=O)N[C@@H](CCCCN)C(N)=O [C16-KGK-NH2] (Palmitoyl-Lys-Gly-Lys-NH2) | 64 | 32 (≈ 56.3 µM) | >512 | 128 (≈ 225 µM) | 128 (≈ 225 µM) | 128 (≈ 225 µM) | 4 (≈ 7.03 µM) | 8 (≈ 14.1 µM) | 4 (≈ 7.03 µM) | 16 (≈ 28.1 µM) | 4 (≈ 7.03 µM) | 8 (≈ 14.1 µM) | 4 (≈ 7.03 µM) | 8 (≈ 14.1 µM) | 4 (≈ 7.03 µM) | 4 (≈ 7.03 µM) | >512 | 128 (≈ 225 µM) | 128 (≈ 225 µM) | 128 (≈ 225 µM) | MFC Candida tropicalis [11]: 256 µg/mL (≈ 450 µM); MIC Candida tropicalis [11]: 256 µg/mL (≈ 450 µM); MIC Staphylococcus epidermidis [12]: 4 µg/mL (≈ 7.03 µM); MBC Staphylococcus epidermidis [12]: 4 µg/mL (≈ 7.03 µM); MIC Pseudomonas aeruginosa [13]: 16 µg/mL (≈ 28.1 µM); MBC Klebsiella pneumoniae, lipopeptides without TFA counter ion [14]: 64 µg/mL (≈ 113 µM); MIC Klebsiella pneumoniae [14]: 16 µg/mL (≈ 28.1 µM); MIC Klebsiella pneumoniae, lipopeptides without TFA counter ion [14]: 32 µg/mL (≈ 56.3 µM); MBC Klebsiella pneumoniae [14]: 16 µg/mL (≈ 28.1 µM); MBC Staphylococcus aureus, lipopeptides without TFA counter ion [15]: 4 µg/mL (≈ 7.03 µM); MIC Staphylococcus aureus [15]: 8 µg/mL (≈ 14.1 µM); MIC Staphylococcus aureus, lipopeptides without TFA counter ion [15]: 4 µg/mL (≈ 7.03 µM); MBC Staphylococcus aureus [15]: 8 µg/mL (≈ 14.1 µM)
2 | CCCCCCCCCCCCCCCC(=O)N[C@@H](CCCCN)C(=O)NCC(=O)N[C@@H](CCCCN)C(=O)NCC(N)=O [C16-KGKG-NH2] (Palmitoyl-KGKG-NH2) | 64 | 8 (≈ 12.8 µM) | >512 | 128 (≈ 205 µM) | 128 (≈ 205 µM) | 128 (≈ 205 µM) | 16 (≈ 25.6 µM) | 16 (≈ 25.6 µM) | 16 (≈ 25.6 µM) | 16 (≈ 25.6 µM) | 8 (≈ 12.8 µM) | 16 (≈ 25.6 µM) | 8 (≈ 12.8 µM) | 16 (≈ 25.6 µM) | 4 (≈ 6.39 µM) | 4 (≈ 6.39 µM) | >512 | 128 (≈ 205 µM) | 128 (≈ 205 µM) | 128 (≈ 205 µM) | MFC Candida tropicalis [11]: 256 µg/mL (≈ 409 µM); MIC Candida tropicalis [11]: 256 µg/mL (≈ 409 µM); MIC Staphylococcus epidermidis [12]: 4 µg/mL (≈ 6.39 µM); MBC Staphylococcus epidermidis [12]: 4 µg/mL (≈ 6.39 µM); MIC Pseudomonas aeruginosa [13]: 8 µg/mL (≈ 12.8 µM); MBC Klebsiella pneumoniae, lipopeptides without TFA counter ion [14]: 32 µg/mL (≈ 51.1 µM); MIC Klebsiella pneumoniae [14]: 16 µg/mL (≈ 25.6 µM); MIC Klebsiella pneumoniae, lipopeptides without TFA counter ion [14]: 16 µg/mL (≈ 25.6 µM); MBC Klebsiella pneumoniae [14]: 16 µg/mL (≈ 25.6 µM); MBC Staphylococcus aureus, lipopeptides without TFA counter ion [15]: 16 µg/mL (≈ 25.6 µM); MIC Staphylococcus aureus [15]: 16 µg/mL (≈ 25.6 µM); MIC Staphylococcus aureus, lipopeptides without TFA counter ion [15]: 8 µg/mL (≈ 12.8 µM); MBC Staphylococcus aureus [15]: 32 µg/mL (≈ 51.1 µM)
